Data taken from patent publication US6207656A, “Vitamin D analogues and their neuronal effects” (Cephalon, Inc., priority 1998, dated 2001).

What was measured:
[1] = Calcemic activity in rats, serum calcium after 7 days oral gavage; assay type: in vivo, LEW/MOL female rats; conditions: for Calcium in Serum: 0.5 μg/kg/day p.o., ± S.D.
Description: For determining calcemic activity, LEW/MOL female rats (130-170 g) were administered test compounds daily for 7 days by oral gavage. Control rats received the vehicle. Each group consisted of 3 rats. Blood was collected by cardiac puncture on day 7.

[2] = cited from earlier work

For `C=C1/C(=C\C=C2/CCC[C@]3(C)[C@@H]([C@H](C)CCCC(C)(C)O)CC[C@@H]23)C[C@@H](O)C[C@@H]1O` [1α,25(OH)2 D3, 1,25-dihydroxy vitamin D3, reference compound], the “Calcium in Serum” value ([1]; Table 2A (vehicle 2.46 ± 0.06)) was 2.71 ± 0.08 mmol/L, the “Calcium in Serum” value ([1]; Table 2B (vehicle 2.57 ± 0.06)) was 2.66 ± 0.10 mmol/L and the “Calcium in Serum” value ([1]; Table 2C (vehicle 2.68 ± 0.03)) was 2.77 ± 0.03 mmol/L. For the same compound, the “Calcium in Serum” value ([1]; Table 2D (vehicle 2.51 ± 0.09)) was 2.71 ± 0.03 mmol/L, the “Calcium in Serum” value ([1]; Table 2E (vehicle 2.51 ± 0.09)) was 2.71 ± 0.03 mmol/L and the “Calcemic Activity (%)” value ([1]; potency relative to 1α,25(OH)2 D3, rats, p.o. 7 days) was 100%. The “serum calcium levels at doses that induce NGF” value ([2]; background) was “increase serum calcium levels at doses that induce NGF” and the “calcemic effect at efficacious doses” value ([2]; based upon previous data) was “calcemic”.
